Data on 6 molecules can be found in patent US5514713A, “Amidinophenol derivatives” (Ono Pharmaceutical Co., Ltd., priority 1993, dated 1996).

In assay [1] the target is T1, trypsin (Bos taurus, UniProt P00760).
T1 construct: from tissue; host or cells: bovine pancreas
T1 sequence (P00760 24-246): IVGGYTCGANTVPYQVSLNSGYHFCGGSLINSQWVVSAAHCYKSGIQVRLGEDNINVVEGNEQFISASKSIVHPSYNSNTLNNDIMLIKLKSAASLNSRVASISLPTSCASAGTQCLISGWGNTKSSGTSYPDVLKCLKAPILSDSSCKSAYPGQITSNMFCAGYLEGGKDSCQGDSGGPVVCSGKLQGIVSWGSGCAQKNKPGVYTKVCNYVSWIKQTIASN
The assay is described as follows: Inhibitory activity on trypsin. Particulars: trypsin derived from bovine pancreas; BAPNA substrate; pH 8.0; 30° C.; absorbance at 405 nm. The class given is biochemical. On the procedure:
(2) Inhibitory activity on trypsin
To a mixture of a 0.2 M HEPES·sodium hydroxide buffer solution (pH 8.0, 100 μl) and distilled water (640 μl), were added solutions of a test compound in respective concentrations or water (10 μl), and a solution of 80 mU/ml trypsin (derived from bovine pancreas) (50 μl) and then the mixture was preincubated for one minute at 30° C. To the solution thus obtained was added 2.5 mM BAPNA (200 μl) and the mixture was incubated at 30° C. The absorbance at 405 nm was measured. Percentage (%) of the absorbance in the presence of a test compound was calculated when the absorbance in the absence thereof was regarded as 100%, and therefrom IC50 value was calculated.
(§1) In the methods hereinbefore described, 10PY-PC represents 3'-palmitoyl-2-(1-opyrenedecanoyl)-L-α-phosphatidylcholine, HEPES represents 4-(2-hydroxyethyl)-1-piperazineethanesulfonic acid, and BAPNA represents α-N-benzoyl-DL-arginine-p-nitroanilide hydrochloride.

In assay [2] the target is T2, PLA2 (Sus scrofa, UniProt P00592).
T2 construct: from tissue; host or cells: hog pancreas
Kind of assay: Inhibitory activity on PLA2. The class given is biochemical, hog. The procedure: A reaction solution including 50 mM tris-HCl buffer (pH7.5, 874 μl; containing 100 mM sodium chloride, 1 mM EDTA), 1M calcium chloride (6 μl), 1% bovine serum albumin (10 μl) and 2.5 mM 10PY-PC (10 μl), was prepared. To the solution were added solutions of a test compound in respective concentrations or water (50 μl), and a solution of 10 mU/ml PLA2 (derived from hog pancreas) (50 μl). The appearance of fluorescence was measured (Ex=345 nm, Em=396 nm). Percentage of the strength of fluorescence in the presence of a test compound was calculated when the strength of that in the absence thereof was regarded as 100%, and therefrom IC50 value was calculated.
as §1

The test system of assay [3] is PLA2. Particulars: Japanese Journal of Clinical Medicine, 48 (1), 165-172, 1990; cited from earlier work.

Structures are written as SMILES. pIC50: −log10 of the molar value. Counter-ions that a name gives are not always drawn.

T2 sequence (P00592 23-146): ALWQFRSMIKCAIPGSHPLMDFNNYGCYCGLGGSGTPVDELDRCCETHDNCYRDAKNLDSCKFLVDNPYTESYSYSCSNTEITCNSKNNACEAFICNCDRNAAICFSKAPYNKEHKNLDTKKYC

As usually defined, the pIC50 is the IC50 on a negative log10 scale, so that one unit is a factor of ten. A lower pIC50 goes with a high IC50. For `CCOC(=O)C(C(=O)OCC)N(CCCOC)C(=O)/C(C)=C/c1ccc(C(=O)Oc2ccc(C(=N)N)cc2)cc1` [1(b), p-(p-Amidinophenoxycarbonyl)-α-methylcinnamic acid N-1,1-bis(ethoxycarbonyl)methyl-N-3-methoxypropylamide acetate], the figures for the pIC50 in assay [1] and in assay [2] were 6.77 and 3.91, respectively.

With `CCOC(=O)CN(CCCOC)C(=O)/C(C)=C/c1ccc(C(=O)Oc2ccc(C(=N)N)cc2)cc1` [Example 1(a), acetate], the pIC50 is 6.60 in assay [1] and 3.97 in assay [2].

On to `CCOC(=O)CCN(CCCOC)C(=O)/C(C)=C/c1ccc(C(=O)Oc2ccc(C(=N)N)cc2)cc1` [Example 1, p-(p-Amidinophenoxycarbonyl)-α-methylcinnamic acid N-2-ethoxycarbonylethyl-N-3-methoxypropylamide hydrochloride], for which the pIC50 in assay [1] was 6.87; in assay [2] it was 3.97.

`COCCCN(CC(=O)O)C(=O)/C(C)=C/c1ccc(C(=O)Oc2ccc(C(=N)N)cc2)cc1` [Example 3, p-(p-Amidinophenoxycarbonyl)-α-methylcinnamic acid N-carboxylmethyl-N-3-methoxypropylamide methanesulfonate] gave a negative logarithm of the IC50 (pIC50) in assay [1] of 6.85.

As to `CN(C)C(=O)COC(=O)Cc1ccc(OC(=O)c2ccc(NC(=N)N)cc2)cc1` [camostat mesylate], the “inhibitory activity on PLA2 (in words)” value in assay [3] is recorded as “inhibitory activity on PLA2”.

Consider `N=C(N)Nc1ccc(C(=O)Oc2ccc3cc(C(=N)N)ccc3c2)cc1` [nafamostat mesylate], for which, in assay [3], the “inhibitory activity on PLA2 (in words)” value is “inhibitory activity on PLA2”.
